Assay results taken from paper PMC10054553, “Development of the First ^18F-Labeled Radiohybrid-Based Minigastrin Derivative with High Target Affinity and Tumor Accumulation by Substitution of the Chelating Moiety” (Pharmaceutics, 2023).

Legend:
[1] = Stability studies in human serum; format: in vitro ADME; conditions: 37 °C, 24 h; for Intact peptide (%): n = 3, 1440 min; for SiOH-containing analog (%): n = 3, analog with hydrolyzed SiFA moiety
Experimental: In vitro stability studies in human serum after incubation at 37 °C for 24 h were performed as described in the Supplemental Material.
Stability Studies in Human Serum. The 177Lu- as well as 67Ga-labeled CCK-2R ligands (1 nmol,
approx. 5 MBq) were incubated for 24 h in human serum (200 μL) at 37 °C. After incubation, ice-cold
EtOH (125 μL) and MeCN (375 μL) were added and the suspension was centrifuged for 5 min at
5000 rpm. Then, the supernatant was transferred into new vials and centrifuged for another 5 min at
5000 rpm. After separating the precipitate from the solution, the stability of the ligands was determined

CCK-2R = target: T1, CCK-2R (Rattus norvegicus, UniProt P30553); assay: CCK-2R-mediated internalization on AR42J cells; format: cell-based; conditions: for Internalization Values (%F11N) 6 h: relative to the reference DOTA-PP-F11N; for Internalization Values (%) 1 h / Internalization Values (%) 2 h / Internalization Values (%) 4 h / Internalization Values (%) 6 h: % of applied activity, 37 °C, 0.25 pmol/well, AR42J cells
T1 construct: CCK-2R-expressing rat pancreatic cancer cells AR42J; host or cells: AR42J (rat pancreatic cancer cells)
T1 sequence (P30553 1-452): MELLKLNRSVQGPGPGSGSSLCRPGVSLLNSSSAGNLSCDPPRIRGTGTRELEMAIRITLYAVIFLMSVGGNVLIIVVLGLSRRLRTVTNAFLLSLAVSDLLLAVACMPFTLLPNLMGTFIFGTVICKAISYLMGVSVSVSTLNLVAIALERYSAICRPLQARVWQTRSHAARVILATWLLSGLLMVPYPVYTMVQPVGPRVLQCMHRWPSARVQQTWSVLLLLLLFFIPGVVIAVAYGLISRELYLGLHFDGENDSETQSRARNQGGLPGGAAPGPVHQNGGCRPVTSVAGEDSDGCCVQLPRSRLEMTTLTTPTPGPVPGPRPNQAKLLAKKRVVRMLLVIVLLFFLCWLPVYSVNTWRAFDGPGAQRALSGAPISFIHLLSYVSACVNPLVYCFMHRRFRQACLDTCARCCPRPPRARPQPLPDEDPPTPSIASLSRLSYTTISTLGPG
Experimental: Figure 3 (a) CCK-2R-mediated internalization (0.25 pmol/well) measured on AR42J cells as percent (%) of applied activity (incubation at 37 °C for 1, 2, 4 and 6 h, RPMI 1640, 5 mm L-Gln, 5 mL non-essential amino acids (100×), 10% FCS + 5% BSA (v/v), 3.0 × 10^5 cells/mL/well). (b) CCK-2R-mediated internalization of [^177Lu]Lu-DOTA-rhCCK-16 (green), [^177Lu]Lu-(R)-DOTAGA-rhCCK-16 (orange), [^177Lu]Lu-DOTA-rhCCK-18 (red) and […] after incubation at 37 °C for 6 h as percent of reference (% of [^177Lu]Lu-DOTA-PP-F11N). * data taken from Holzleitner et al..
Cell Culture. CCK-2R-expressing rat pancreatic cancer cells AR42J (CLS GmbH, Eppelheim, Germany) were cultivated in monolayers in CELLSTAR® cell culture flasks acquired from Greiner Bio-One GmbH (Frickenhausen, Germany) at 37°C in a humidified atmosphere (5% CO2) using a HERAcell 150i-Incubator (Thermo Fisher Scientific Inc., Waltham, United States). The nutrient medium RPMI 1640 medium, supplemented with 5 mM L-Gln 5 mL non-essential amino acids (100×) and 10% FCS, was used. Furthermore, a Dulbecco’s PBS solution with 0.1% EDTA (v/v) was applied to detach the cells for cell passaging. The detached cells were counted using a Neubauer hemocytometer (Paul Marienfeld, Lauda-Königshofen, Germany). In addition, all operations under sterile conditions were accomplished using a MSC-Advantage safety workbench (Thermo Fisher Scientific Inc., Waltham, United States). […]
Internalization Studies. For the determination of the internalization kinetics of the various peptides, AR42J cells (3.0 × 10^5 cells/well) were seeded into polylysine-coated 24-well plates, adding 1 mL of nutrient medium. Afterwards, the cells were incubated for 24 ± 2 h at 37°C in a humidified atmosphere […]
On the day of the experiment, the medium was removed, and each well was washed with nutrient medium (300 μL). Afterwards 200 μL of nutrient medium, 25 μL of the 177Lu-labeled peptide (0.3 pmol, n = 6) and either 25 μL of nutrient medium for internalization studies ( n = 3) or 25 μL of [natLu]Lu-DOTA-PP-F11N (10 μmol) for competition studies ( n = 3) were added. Thereafter, the assay was incubated for various time points (1, 2, 4 and 6 h) at 37°C in a humidified atmosphere (5% CO2). After incubation, the cells were put on ice for at least 1 min to stop internalization kinetics and the supernatant was collected. Then, the cells were washed with an ice-cold nutrient medium (300 μL) and both fractions were unified. In order to displace the peptides from the cell membrane, 300 μL of an ice-cold glycine buffer (1 M, pH = 2.2) were added and the cells were incubated on ice for 15 min. Afterwards, the supernatant was collected, and the cells were washed with an ice-cold glycine buffer (300 μL, 1 M, pH = 2.2) while both fractions were unified. After lysis of the cells with NaOH (300 μL, 1 N) for 15 min, the respective wells were washed with NaOH (300 μL, 1 N) and both fractions were unified. The radioactivity of the supernatant, the acid wash and the lysed fractions were quantified using a γ-counter.
Lipophilicity Studies. Lipophilicity (depicted as octanol-phosphate-buffered saline solution (PBS, pH = 7.4) distribution coefficient, logD7.4) was determined by dissolving the 177Lu-labelled peptide (approx. 1 MBq) in a mixture (1/1, v/v) of n-octanol and PBS. The suspension was vortexed in a reaction vial (1.5 mL) for 3 min at room temperature and the vial was centrifuged at 9000 rpm for 5 min (Biofuge 15, Heraus Sepatech GmbH, Osterode, Germany). Amounts of 200 μL aliquots of both layers were measured separately in a γ-counter (Perkin Elmer, Waltham, MA, USA). The experiment was repeated […]
Stability Studies in Human Serum. The 177Lu- as well as 67Ga-labeled CCK-2R ligands (1 nmol, approx. 5 MBq) were incubated for 24 h in human serum (200 μL) at 37 °C. After incubation, ice-cold EtOH (125 μL) and MeCN (375 μL) were added and the suspension was centrifuged for 5 min at […]
5000 rpm. […]

[2] = target: Human serum albumin (HSA) (Homo sapiens, UniProt P02768); assay: Human serum albumin (HSA) binding, ultracentrifugation method; format: in vitro ADME; conditions: HSA 700 µM in PBS, 37 °C, 30 min, n = 6, corrected for unspecific binding
Chain of Human serum albumin (HSA) (P02768 25-609): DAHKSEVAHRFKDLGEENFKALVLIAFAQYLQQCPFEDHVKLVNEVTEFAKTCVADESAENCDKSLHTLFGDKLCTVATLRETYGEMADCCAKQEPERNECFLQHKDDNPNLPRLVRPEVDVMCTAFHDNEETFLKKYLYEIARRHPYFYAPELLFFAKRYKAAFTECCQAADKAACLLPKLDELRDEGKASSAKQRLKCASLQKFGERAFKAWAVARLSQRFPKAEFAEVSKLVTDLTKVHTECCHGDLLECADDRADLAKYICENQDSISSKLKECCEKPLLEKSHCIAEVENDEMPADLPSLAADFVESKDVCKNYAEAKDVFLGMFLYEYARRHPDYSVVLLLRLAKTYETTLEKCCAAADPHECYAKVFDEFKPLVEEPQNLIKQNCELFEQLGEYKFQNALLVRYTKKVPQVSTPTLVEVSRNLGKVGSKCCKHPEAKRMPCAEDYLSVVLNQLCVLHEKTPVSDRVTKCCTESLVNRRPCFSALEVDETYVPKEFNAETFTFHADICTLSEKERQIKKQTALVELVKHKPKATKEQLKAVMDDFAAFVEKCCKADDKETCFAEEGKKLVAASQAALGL
Experimental: Human serum albumin (HSA) binding was determined in analogy to a previously published ultracentrifugation method. Therefore, the peptides of interest were incubated in a solution of HSA (700 µM in phosphate-buffered saline) at 37 °C for 30 min (n = 6). All values were corrected for unspecific binding.

SMILES	Intact peptide (%) [1]	SiOH-containing analog (%) [1]	Internalization Values (%F11N) 6 h (CCK-2R)	Internalization Values (%) 1 h (CCK-2R)	Internalization Values (%) 2 h (CCK-2R)	Internalization Values (%) 4 h (CCK-2R)	Internalization Values (%) 6 h (CCK-2R)	HSA Binding (%) [2]	HSA Binding (%) ([2]; listed as [^177Lu]Lu-DOTA-rhCCK-18)	SiOH-containing analog (%) ([1]; listed as [177Lu]Lu-DOTA-rhCCK-16)
CCCC[C@H](NC(=O)[C@H](Cc1c[nH]c2ccccc12)NC(=O)CNC(=O)[C@H](Cc1ccc(O)cc1)NC(=O)[C@H](C)NC(=O)CC[C@@H](NC(=O)CC[C@@H](NC(=O)CC[C@@H](NC(=O)CC[C@@H](NC(=O)CC[C@@H](NC(=O)CC[C@@H](NC(=O)CC[C@@H](NC(=O)CC[C@@H](NC(=O)[C@@H](CNC(=O)c1ccc([Si](F)(C(C)(C)C)C(C)(C)C)cc1)NC(=O)CN1CCN(CC(=O)O)CCN(CC(=O)O)CCN(CC(=O)O)CC1)C(=O)O)C(=O)O)C(=O)O)C(=O)O)C(=O)O)C(=O)O)C(=O)O)C(=O)O)C(=O)N[C@@H](CC(=O)O)C(=O)N[C@@H](Cc1ccccc1)C(N)=O [[^19F]F-[^177Lu]Lu-DOTA-rhCCK-18] [metal not drawn]	25.3 ± 3.1%	67.7 ± 3.1%	244 ± 7 %F11N	15.4 ± 1.4%	24.1 ± 1.6%	41.6 ± 2.6%	54.8 ± 1.5%	62.6%	62.6%	
CCCC[C@H](NC(=O)[C@H](Cc1c[nH]c2ccccc12)NC(=O)CNC(=O)[C@H](Cc1ccc(O)cc1)NC(=O)[C@H](C)NC(=O)CC[C@@H](NC(=O)CC[C@@H](NC(=O)CC[C@@H](NC(=O)CC[C@@H](NC(=O)CC[C@@H](NC(=O)CC[C@@H](NC(=O)[C@@H](CNC(=O)c1ccc([Si](F)(C(C)(C)C)C(C)(C)C)cc1)NC(=O)CN1CCN(CC(=O)O)CCN(CC(=O)O)CCN(CC(=O)O)CC1)C(=O)O)C(=O)O)C(=O)O)C(=O)O)C(=O)O)C(=O)O)C(=O)N[C@@H](CC(=O)O)C(=O)N[C@@H](Cc1ccccc1)C(N)=O [[^177Lu]Lu-DOTA-rhCCK-16, metal not drawn]	21.8 ± 0.8%		215 ± 7 %F11N	19.5 ± 2.3%	33.1 ± 1.7%	43.9 ± 0.7%	51.1 ± 1.7%	89.1%		69.1 ± 1.0%
